{"source": "patent US10807960B2", "about": "“Compounds, compositions, and methods for controlling biofilms” (KATHOLIEKE UNIVERSITEIT LEUVEN, priority 2015, dated 2020)", "key": {"[1]": {"tested_on": "S. aureus ATCC6538 + S. epidermidis", "experiment": "mixed S. aureus/S. epidermidis biofilm assay, crystal violet", "assay_type": "cell-based", "details": "37° C. (Table 3)", "protocol": "Overnight cultures of S. aureus ATCC6538 and S. epidermidis were grown in LB medium and were diluted 1/200 in the same vial of TSB to form a mixed culture suspension."}, "Caenorhabditis elegans": {"tested_on": "Caenorhabditis elegans", "details": "as previously reported; cited from earlier work"}, "bone cells": {"tested_on": "bone cells", "details": "as previously reported; cited from earlier work"}, "[2]": {"tested_on": "eukaryotic tumor cell lines", "details": "as previously reported; cited from earlier work"}, "P. gingivalis ATCC33277": {"tested_on": "P. gingivalis ATCC33277", "experiment": "static peg (Calgary Biofilm Device) anti-biofilm assay, crystal violet and OD600", "details": "37° C."}, "S. Typhimurium ATCC14028": {"tested_on": "S. Typhimurium ATCC14028", "experiment": "static peg (Calgary Biofilm Device) anti-biofilm assay, crystal violet and OD600", "details": "read-out: BIC50; biofilm formation, 25° C."}, "S. aureus ATCC6538": {"tested_on": "S. aureus ATCC6538", "experiment": "static peg (Calgary Biofilm Device) anti-biofilm assay, crystal violet and OD600", "details": "37° C."}, "[3]": {"details": "mixed biofilm formation, read-out: BIC50"}, "[4]": {"details": "planktonic growth of mixed culture, read-out: IC50"}, "[5]": {"details": "read-out: BIC50, biofilm formation"}}, "note": "Like-named read-outs stand apart in the source and are kept apart here."}
{"smiles": "CCCCCCCCn1c(-c2ccc(Cl)cc2)cnc1N", "note": "[Compound 2]", "values": [{"measurement": "IC50", "setting": "[1]; [3]", "value": "~7.2", "unit": "µM"}, {"measurement": "IC50", "setting": "[1]; [4]", "value": "~9.9", "unit": "µM"}, {"measurement": "toxicity (in words)", "setting": "Caenorhabditis elegans", "value": "strong toxicity"}, {"measurement": "toxicity (in words)", "setting": "bone cells", "value": "strong toxicity"}, {"measurement": "toxicity (in words)", "setting": "[2]", "value": "strong toxicity"}, {"measurement": "IC50", "setting": "P. gingivalis ATCC33277; planktonic growth", "value": 6, "unit": "µM"}, {"measurement": "IC50", "setting": "P. gingivalis ATCC33277; [5]", "value": 3.9, "unit": "µM"}, {"measurement": "IC50", "setting": "S. Typhimurium ATCC14028", "value": "~5.9", "unit": "µM"}, {"measurement": "IC50", "setting": "S. aureus ATCC6538; planktonic growth", "value": 7.8, "unit": "µM"}, {"measurement": "IC50", "setting": "S. aureus ATCC6538; [5]", "value": 2.8, "unit": "µM"}]}
{"smiles": "CC(C)CNc1ncc(-c2ccc(Cl)cc2)[nH]1", "note": "[Compound 3]", "values": [{"measurement": "IC50", "setting": "[1]; [3]", "value": "~26.3", "unit": "µM"}, {"measurement": "IC50", "setting": "[1]; [4]", "value": "~140", "unit": "µM"}, {"measurement": "IC50", "setting": "P. gingivalis ATCC33277; planktonic growth", "value": 5.1, "unit": "µM"}, {"measurement": "IC50", "setting": "P. gingivalis ATCC33277; [5]", "value": 5.3, "unit": "µM"}, {"measurement": "IC50", "setting": "S. Typhimurium ATCC14028", "value": 2, "unit": "µM"}, {"measurement": "IC50", "setting": "S. aureus ATCC6538; planktonic growth", "value": "~96.1", "unit": "µM"}, {"measurement": "IC50", "setting": "S. aureus ATCC6538; [5]", "value": 95.3, "unit": "µM"}]}
{"smiles": "Clc1ccc(-c2cnc(NC3CCCC3)[nH]2)cc1", "note": "[Compound 5]", "values": [{"measurement": "IC50", "setting": "[1]; [3]", "value": "~66.6", "unit": "µM"}, {"measurement": "IC50", "setting": "[1]; [4]", "value": "~91.7", "unit": "µM"}, {"measurement": "IC50", "setting": "P. gingivalis ATCC33277; planktonic growth", "value": 4, "unit": "µM"}, {"measurement": "IC50", "setting": "P. gingivalis ATCC33277; [5]", "value": 5.7, "unit": "µM"}, {"measurement": "IC50", "setting": "S. Typhimurium ATCC14028", "value": 4.4, "unit": "µM"}, {"measurement": "IC50", "setting": "S. aureus ATCC6538; planktonic growth", "value": 62.3, "unit": "µM"}, {"measurement": "IC50", "setting": "S. aureus ATCC6538; [5]", "value": 34.4, "unit": "µM"}]}
